Patent US6002008A, “Substituted 3-cyano quinolines” (American Cyanamid Company, priority 1998, dated 1999)

Key:
[1] = tested on: SW620; assay: Inhibition of cancer cell growth as measured by cell number; format: cell-based, human; conditions: SW620, 48 hours, Table 8
From the text: (§1) The cell lines were chosen since they overexpressed epidermal growth factor receptor (EGFR) (i.e. A431) or HER2/neu (SKBR3), or had little to no expression of the these receptors (SW620, LOX, MCF7).

[2] = tested on: A431; assay: as above; format: cell-based, human; conditions: A431, 48 hours, Table 8
From the text: as §1

[3] = tested on: SKBR3; assay: as above; format: cell-based, human; conditions: SKBR3, 48 hours, Table 8
From the text: as §1

[4] = tested on: PC3; assay: as above; format: cell-based, human; conditions: PC3, 48 hours
From the text: as §1

[5] = tested on: human epidermoid tumors (A431); assay: In vivo inhibition of the growth of human epidermoid tumors (A431) in mice; design: species or system human tumor in BALB/c nu/nu female mice; conditions: for tumor growth was inhibited by: 100 mg/kg i.p. days 1-10
Method: Representative compounds of this invention (listed below) were evaluated in an in vivo standard pharmacological test procedure which measured its ability to inhibit the growth of human epidermoid tumors. […] BALB/c nu/nu female mice (Charles River, Wilmington, Mass.) were used in this in vivo standard pharmacological test procedure. […] When tumors attained a mass of between 100 and 150 mg, the mice were randomized into treatment groups (day zero). Mice were treated IP once a day either on days 1, 5, and 9 or on days 1 through 10 post staging with doses of either 80, 40 or 20 mg/kg/dose of the compound to be evaluated in 0.2% Klucel. Control animals received no drug. Tumor mass was determined every 7 days [(length X width^2)/2] for 28 days post staging. Relative tumor growth (Mean tumor mass on days 7, 14, 21, and 28 divided by the mean tumor mass on day zero) is determined for each treatment group.

CCCN(CC#CC(=O)Nc1ccc2ncc(C#N)c(Nc3cccc(Br)c3)c2c1)CCC [Example 170, N-{4-[(3-Bromophenyl)amino]-3-cyano-6-quinolinyl}-4-dipropylamino-2-butynamide]
Inhibition of Cancer Cell Growth as Measured by Cell Number (IC50) [1]: 0.1 mg/L | Inhibition of Cancer Cell Growth as Measured by Cell Number (IC50) [2]: 0.03 mg/L | Inhibition of Cancer Cell Growth as Measured by Cell Number (IC50) [3]: 0.03 mg/L

CCOc1cc2ncc(C#N)c(Nc3cccc(Br)c3)c2cc1OCC [Example 47, 4-[(3-Bromophenyl)amino]-6,7-diethoxy-3-quinolinecarbonitrile]
Inhibition of Cancer Cell Growth as Measured by Cell Number (IC50) [4]: 0.11 mg/L | % T/C ([5]; 40 mg/kg/dose IP days 1-10, day 7): 69% | % T/C ([5]; 40 mg/kg/dose IP days 1-10, day 14): 74% | % T/C ([5]; 40 mg/kg/dose IP days 1-10, day 21): 116% | % T/C ([5]; 40 mg/kg/dose IP days 1-10, day 28): 136% | % T/C ([5]; 50 mg/kg/dose IP days 1-10, day 7): 44% | % T/C ([5]; 50 mg/kg/dose IP days 1-10, day 14): 55% | % T/C ([5]; 50 mg/kg/dose IP days 1-10, day 21): 87% | % T/C ([5]; 50 mg/kg/dose IP days 1-10, day 28): 102% | tumor growth was inhibited by ([5]; day 7): 66% | tumor growth was inhibited by ([5]; day 14): 63% | tumor growth was inhibited by ([5]; day 21): 49% | tumor growth was inhibited by ([5]; day 28): 57% | % T/C ([5]; 100 mg/kg/dose IP days 1-10, day 7): 34% | % T/C ([5]; 100 mg/kg/dose IP days 1-10, day 14): 37% | % T/C ([5]; 100 mg/kg/dose IP days 1-10, day 21): 51% | % T/C ([5]; 100 mg/kg/dose IP days 1-10, day 28): 43% | Tumor growth inhibition, dose dependence ([5]; i.p. days 1-10): appeared to be dose dependent
